{"source": "paper PMC9229843", "about": "“Cancer-Related Somatic Mutations in Transmembrane Helices Alter Adenosine A1 Receptor Pharmacology” (Molecules, 2022)", "experiment_in_all_cases": "yeast liquid growth assay", "assay_type_in_all_cases": "cell-based", "key": {"hA1AR A20T^1.43": {"target": "T1, hA1AR A20T^1.43 (Homo sapiens, UniProt P30542, A20T)", "T1 construct": "expressed in transfected cells; host or cells: S. cerevisiae MMY24", "T1 sequence (P30542 1-326 A20T)": "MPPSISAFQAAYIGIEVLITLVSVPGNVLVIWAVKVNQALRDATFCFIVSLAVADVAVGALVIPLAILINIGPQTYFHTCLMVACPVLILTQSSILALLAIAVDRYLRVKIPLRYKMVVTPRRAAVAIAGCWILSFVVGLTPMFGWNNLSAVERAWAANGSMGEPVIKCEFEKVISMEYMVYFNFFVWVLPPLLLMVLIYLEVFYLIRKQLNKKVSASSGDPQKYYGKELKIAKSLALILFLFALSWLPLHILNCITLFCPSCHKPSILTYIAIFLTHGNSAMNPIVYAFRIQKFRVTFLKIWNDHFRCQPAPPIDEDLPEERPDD", "settings": "ratio over basal activity of wild type hA1AR, 7 mM 3-AT", "description": "(§1) The plasmids, pDT-PGK_hA1AR, containing either wild type or mutated hA1AR were transformed into a MMY24 S. cerevisiae strain following the lithium acetate procedure.\n(§2) In order to characterize the mutant hA1ARs, liquid growth assays in 96-well plates were performed to obtain concentration–growth curves as previously described. […] The overnight cultures were then diluted to 40,000 cells/mL (OD600 ≈ 0.02) in a selective medium without uracil, leucine, and histidine (YNB-ULH). For the determination of constitutive activity, 50 μL of yeast cells and 150 μL of YNB-ULH medium containing different concentrations of 3-AT and 0.8 IU/mL ADA were then added to each well. To obtain concentration–growth curves, 2 μL of various concentrations of ligands, 50 μL of yeast cells, and 150 μL of YNB-ULH medium containing 7 mM 3-AT and 0.8 IU/mL ADA were then added to each well. After incubation at 30 °C for 35 h in a Genios plate reader (TECAN, Zürich, Switzerland) with shaking for 1 min at 300 rpm every 10 min, the optical density was measured at a wavelength of 595 nm, which represented the level of yeast cell growth.\n(§3) All experimental data were analyzed by GraphPad Prism 7.0 or 8.0 (GraphPad Software Inc., San Diego, CA, USA). Data from yeast liquid growth and [^35S]GTPγS binding assays were analyzed by non-linear regression using “log (agonist) vs. response (three parameters)” or “log (inhibitor) vs. response (three parameters)” to obtain potency (EC50), inhibitory potency (IC50), and efficacy (Emax or Imax) values. The radioligand displacement curves were obtained from a statistically preferred one-site or two-site binding model. pKi values were calculated from pIC50 values using the Cheng–Prusoff equation, where KD values were obtained from the homologous competition assays from this study and calculated by non-linear regression using “one site–homologous” [62]."}, "hA1AR A52V^2.47": {"target": "T2, hA1AR A52V^2.47 (Homo sapiens, UniProt P30542, A52V)", "T2 construct": "expressed in transfected cells; host or cells: S. cerevisiae MMY24", "T2 sequence (P30542 1-326 A52V)": "T1 sequence (P30542 1-326 A20T) with T20A, A52V", "description": "as §1, §2, §3"}, "hA1AR D55G^2.50": {"target": "T3, hA1AR D55G^2.50 (Homo sapiens, UniProt P30542, D55G)", "T3 construct": "expressed in transfected cells; host or cells: S. cerevisiae MMY24", "T3 sequence (P30542 1-326 D55G)": "T1 sequence (P30542 1-326 A20T) with T20A, D55G", "settings": "result in words", "description": "as §1, §2, §3"}, "hA1AR H78L^3.23": {"target": "T4, hA1AR H78L^3.23 (Homo sapiens, UniProt P30542, H78L)", "T4 sequence (P30542 1-326 H78L)": "T1 sequence (P30542 1-326 A20T) with T20A, H78L", "description": "as §1, §2, §3"}, "hA1AR W188C^5.46": {"target": "T5, hA1AR W188C^5.46 (Homo sapiens, UniProt P30542, W188C)", "T5 sequence (P30542 1-326 W188C)": "T1 sequence (P30542 1-326 A20T) with T20A, W188C", "description": "as §1, §2, §3"}, "[1]": {"settings": "ratio over basal activity of wild type hA1AR, 7 mM 3-AT"}}, "note": "Numbering of substitutions follows the chain as printed.", "data": [{"smiles": "OC[C@H]1O[C@@H](n2cnc3c(NC4CCCC4)ncnc32)[C@H](O)[C@@H]1O", "note": "[CPA, N^6-cyclopentyladenosine]", "values": [{"measurement": "Emax", "setting": "hA1AR A20T^1.43", "value": "4.23 ± 0.60"}, {"measurement": "decrease in potency versus wild type hA1AR", "setting": "hA1AR A52V^2.47", "value": "more than 400 fold"}, {"measurement": "agonist-induced receptor activation", "setting": "hA1AR D55G^2.50", "value": "could not be activated"}, {"measurement": "Emax", "setting": "hA1AR H78L^3.23; [1]", "value": "4.15 ± 0.17"}, {"measurement": "agonist-induced receptor activation", "setting": "hA1AR H78L^3.23; result in words", "value": "further activation could not be obtained"}, {"measurement": "decrease in potency versus wild type hA1AR", "setting": "hA1AR W188C^5.46", "value": 10, "unit": "fold"}, {"measurement": "Emax", "setting": "hA1AR W188C^5.46; [1]", "value": "4.35 ± 0.10"}]}]}
